Measured values published in patent US8778975B2, “Helicobacter pylori eradicating agent having inhibitory activity on gastric acid secretion” (Link Geonomics, Inc., priority 2006, dated 2014).

Assays:
gastric acid secretion = test: Gastric acid secretion inhibiting action, pylorus ligation in rats; type: in vivo, SD rats; conditions: 30 mg/kg to the duodenum, 4 hours after pylorus ligation, average
Experimental: The gastric acid secretion inhibiting action of the compounds of the present invention was tested. A group of five animals of male SD rats (about 200 g) were used, and the medicaments were respectively dissolved in 0.5% CMC and were all administered to the duodenum respectively at 30 mg/kg. The rats were fasted overnight from the day before the administration of the test substance to the point of administration, and pylorus ligation was performed.

[1] = Stability test in acidic hydrochloric acid solution (pH 2), residual ratio by HPLC; type: physicochemical; conditions: for Residual ratio at pH 2: pH 2 HCl, 37° C.; for Stability in acid (residual ratio at pH = 2: %): Table 8 summary, time not stated
Experimental: A test for the stability of thioether compounds (hereinafter, referred to SH-form) and sulfoxide compounds (hereinafter, referred to SO-form) at pH 2.0 was carried out. (Method) Each of the specimens produced in Examples 1 to 3 and Reference Examples 6 to 8 (sulfinyl products of Examples 1 to 3) was maintained in a solution adjusted to pH 2 with 0.5 or 1.0 mmol/L HCl (37° C.) for a predetermined time period. Subsequently, the solution was adjusted to pH 8 with triethylamine, and then an HPLC analysis was performed to calculate the residual ratio.

Row | SMILES | Gastric acid secretion inhibiting action: Amount of gastric acid (gastric acid secretion) | Gastric acid secretion inhibiting action: Amount of gastric acid secretion (gastric acid secretion) | Gastric acid secretion inhibiting action: Total acidity (gastric acid secretion) | Residual ratio at pH 2 ([1]; 0 min) | Residual ratio at pH 2 ([1]; 30 min) | Residual ratio at pH 2 ([1]; 2 hours) | Stability in acid (residual ratio at pH = 2: %) [1]
1 | CCCCCCOc1ccnc(CSc2nc3ccccc3[nH]2)c1C [Example 2, 2-[(4-n-hexyloxy-3-methylpyridin-2-yl)-methylthio]-1H-benzimidazole] | 44% | 65% | 34% | 100% | 100% | 100% | 100%
2 | CCCCCCCOc1ccnc(CSc2nc3ccccc3[nH]2)c1C [Example 3, 2-[(4-n-heptyloxy-3-methylpyridin-2-yl)-methylthio]-1H-benzimidazole] | 44% | 70% | 44% | 100% | 100% | 100% | 100%
3 | CCCCCOc1ccnc(CSc2nc3ccccc3[nH]2)c1C [Example 1, 2-[(4-n-pentyloxy-3-methylpyridin-2-yl)-methylthio]-1H-benzimidazole] | 57% | 82% | 60% | 100% | 100% | 100% | 100%
